# Data as given in patent US20140275282A1, “Treating osteopenia and related disorders with geranylgeranyl acetone and derivatives thereof” (COYOTE PHARMACEUTICALS, INC., priority 2013, published 2014).
# System: osteoclast-mediated bone resorption
# Assay: Inhibition of osteoclast function in vivo by monitoring bone resorption in young growing mice
# Details: young growing mice aged 3-4 weeks, subcutaneous bid for 14 days (5 mg/kg/day)
# Experimental: GGA and derivatives can be tested for their ability to modulate osteoclast function by administering to animals and monitoring bone resorption. One model is to determine the effects on bone resorption of young growing mice as previously described (Schenk et al., Calcif. Tissues Int 38:342-349, 1986; Simonet et al., Cell 89, 308-319, 1997). Young growing mice aged 3-4 weeks, weight range 9.2-15.7 g are divided into groups of ten mice per group. These mice are injected subcutaneously with saline or test compounds bid for 14 days (5 mg/kg/day). The mice are then radiographed before treatment, at day 7 and on day 14. The mice were sacrificed 24 hours after the final injection. The right femur is then removed, fixed in zinc formalin, decalcified in formic acid and embedded in paraffin. Sections are cut through the mid region of the distal femoral metaphysis and the femoral shaft. Bone density, by histomorphometry, is determined in six adjacent regions extending from the metaphyseal limit of the growth plate, through the primary and secondary spongiosa and into the femoral diaphysis (shaft). […] This is a region where bone is rapidly removed by osteoclast-mediated bone resorption in mice. In these rapidly growing young mice, the increase in bone in this region observed with treatment is consistent with an inhibition of bone resorption.
compound,measurement,setting,value
"CC(=O)CCC=C(C)CCC=C(C)CCC=C(C)CCC=C(C)C [GGA, Geranylgeranyl acetone]","Radiographic changes: zone of bone density in the spongiosa associated with the growth plates, relative to controls",after seven days of treatment,increased bone density
same,"Histological changes: bone density (histomorphometry) in distal femoral metaphysis, regions 1.1 to 2.65 mm from the growth plate",right femur removed 24 hours after final injection,increased bone density
